# Test results reported in ChEMBL document CHEMBL1130924, “Potent inhibition of protein-tyrosine phosphatase-1B using the phosphotyrosyl mimetic fluoro-O-malonyl tyrosine (FOMT)” (Bioorg Med Chem Lett, 1998).
# pIC50, pKi: −log10 of the molar value. Peptide text beside a SMILES is read from it. * marks the point of attachment. X1 = O=C(O)C(C(=O)O)*
# Columns and labels:
# [1] = biological target: T1, Tyrosine-protein phosphatase non-receptor type 1 (Homo sapiens, UniProt P18031); assay: Compound was evaluated for the binding affinity against protein-tyrosine phosphatase 1B (PTP1B)
# T1 sequence (P18031 whole entry): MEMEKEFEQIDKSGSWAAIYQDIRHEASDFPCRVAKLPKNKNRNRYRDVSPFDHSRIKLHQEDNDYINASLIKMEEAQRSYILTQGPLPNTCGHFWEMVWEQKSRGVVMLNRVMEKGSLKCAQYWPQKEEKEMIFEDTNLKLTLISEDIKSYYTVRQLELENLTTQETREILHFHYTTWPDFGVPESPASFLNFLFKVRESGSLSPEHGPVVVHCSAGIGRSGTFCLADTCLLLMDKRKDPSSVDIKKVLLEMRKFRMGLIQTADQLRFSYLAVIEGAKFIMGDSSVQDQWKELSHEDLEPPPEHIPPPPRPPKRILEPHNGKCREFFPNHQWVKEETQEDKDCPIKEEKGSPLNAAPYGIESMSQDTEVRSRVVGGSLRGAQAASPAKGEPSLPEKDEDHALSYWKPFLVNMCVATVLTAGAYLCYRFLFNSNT
# [2] = biological target: T1, Tyrosine-protein phosphatase non-receptor type 1; assay: Compound concentration that cause 50% inhibition of protein-tyrosine phosphatase 1B (PTP1B)
smiles,measurement,setting,value
CC(C)C[C@@H]1NC(=O)[C@H](Cc2ccc(OC(F)(C(=O)O)C(=O)O)cc2)NC(=O)[C@@H](CCC(=O)O)NC(=O)[C@H](CC(=O)O)NC(=O)[C@@H](C)NC(=O)[C@H](CC(=O)O)NC(=O)CSCC(C(N)=O)NC1=O (some centres undefined),pKi,[1],6.77
N[C@@H](Cc1ccc(OC(C(=O)O)C(=O)O)cc1)C(=O)O,pIC50,[2],5.00
CC(=O)N[C@@H](CC(=O)O)C(=O)N[C@@H](C)C(=O)N[C@@H](CC(=O)O)C(=O)N[C@@H](CCC(=O)O)C(=O)N[C@@H](Cc1ccc(OC(C(=O)O)C(=O)O)cc1)C(=O)N[C@@H](CC(C)C)C(N)=O (Ac-DADEY(X1)L-NH2),pKi,[1],4.89
N[C@@H](Cc1ccc(OC(F)(C(=O)O)C(=O)O)cc1)C(=O)O [FLUOROMALONYL TYROSINE],pIC50,[2],6.00
